We go through 9 compounds from US9499495B2, “Quinazolines and azaquinazolines as dual inhibitors of RAS/RAF/MEK/ERK and PI3K/AKT/PTEN/mTOR pathways” (Asana Biosciences, LLC, priority 2013, dated 2016).

Molecules are shown by their SMILES.

One assay has as its target T1, B-RAFV600E (Homo sapiens, UniProt P15056, V600E).
T1 construct: purchased Millipore, USA 14-557
Put plainly: B-RAFV600E radiometric assay. The assay is classed as biochemical. Particulars: read-out: Kinase assay B-Raf. Put shortly: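 B-RAFV600E was preincubated 45 min at rt with compound in 1% DMSO. MEK-K97M (0.5 μg), 5 μM final cold ATP and [γ-32P]ATP were then added for 2 h at rt. Phosphorylated MEK was captured on P81 paper and scintillation-counted; IC50 came from a sigmoidal dose-response fit.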

For the next assay, the system named is pS6RP in RKO cells. The assay is described as follows: In Cell Western (ICW) assay, pS6RP in RKO cells. The assay is classed as cell-based. Particulars: Homo sapiens, 3 h treatment. Put shortly: (§1)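 After a 3 h compound treatment at 37 °C, fixed RKO or A375 cells were probed for phospho-ERK1/2 (T202/Y204), phospho-S6RP or phospho-AKT T308 and detected with a Eu-tagged anti-rabbit antibody (ex 340/em 615 nm), with Hoechst signal as the cell-number correction. Inhibition was referenced to DMSO, and IC50 values came from sigmoidal dose-response curves.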

The subject of a further assay is RKO cells. Put plainly: XTT assay for cell viability, RKO cells. The assay is classed as cell-based. Conditions: Homo sapiens, 72 h. Put shortly: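 GI50 derived by sigmoidal dose-response fitting of proliferation normalised to DMSO control (100%). Readout: A450 after 2-3 h with XTT (1 mg/ml)/PMS (25 μM), following 72 h compound treatment at 37° C., 5% CO2 of cells plated at 1000-2000 per well the previous day.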
In general terms: Formazan colour is commonly taken as a measure of viable cells.

Another assay concerns pAKT (T308) in RKO cells. Put plainly: In Cell Western (ICW) assay, pAKT-T308 in RKO cells. The format is cell-based. Conditions: Homo sapiens, 3 h treatment. As to the method:
Cell lines A375, A2058 and RKO obtained from the ATCC as provided above, were grown, and after attaining ˜80% confluency were trypsinized, centrifuged and resuspended in fresh media. The cells were seeded at the specified density (20,000 to 50,000) in a 96-well format black-well clear bottom plate (Corning) and incubated overnight at 37° C. in a 5% CO2 incubator. The next day, compound dilutions of test compounds were prepared in 100% DMSO followed by dilutions in respective media. Treatment of test compounds was performed for 3 h at 37° C. in 5% CO2 incubator. Following 3 h drug treatment, the conditional media was discarded and the cells were washed once with cPBS (PBS containing 0.1% magnesium chloride hexahydrate and 0.1% anhydrous calcium chloride) and fixed with 4% paraformaldehyde in cPBS for 1 h at rt. After fixing, the cells were given three washes using cPBST (cPBS containing 0.1% Triton™ X-100 reagent) and then blocked using blocking solution (5% skimmed milk powder or 5% BSA prepared in cPBST) for 2 h at rt with shaking at 300 rpm. The cells were again washed thrice with cPBST and incubated with primary antibody phospho-p44/42 MAPK(Erk1/2)(Thr202/204) antibody (Cell Signaling, Catalog # 9101L), phospho S6 ribosomal protein (Cell Signaling, Catalog #4858L), phospho AKT (Thr 308) (Cell Signaling, Catalog #9275) or phospho AKT (Ser 473) (Cell Signaling, Catalog #4060L) in specified dilutions (1:500-1:2500), prepared in respective blocking solutions, in a racker overnight at 4° C. The next day, the cells were washed with 1× Delfia® wash buffer (4×1 wash) and incubated with secondary antibody (Delfia®-Eu-N1 labeled anti-rabbit antibody; PerkinElmer, Catalog #AD0105; dilutions: 1:2000 to 1:6000 in Delfia® assay buffer (PerkinElmer, Catalog #1244-111)) for 2 h at rt in the dark at 300 rpm. The cells were then given four washes with 1× Delfia® wash buffer and incubated with Wallac Delfia® Enhancement solution (100 μL; PerkinElmer, Catalog #1244-105) for 20 min at rt in the dark at 300 rpm. The fluorescence emission was then read at 615 nm with an excitation wavelength of 340 nm using a Victor V5 Fluorometer (Perkin Elmer, US). The cells were then washed once with 1×cPBS and incubated with 100 μL of 0.5 mg/mL of Hoechst 33258 dye prepared in cPBS and read at 460 nm with 355 nm excitation, thereby evaluating the correction factor.
The % inhibition for the test compounds of formula (I) (new chemical entities (NCEs)) was calculated keeping DMSO control as 0% and the IC50 values were determined using sigmoidal dose response curve fit in GraphPad Prism® v5 software.

Another assay deals with pERK in RKO cells. Put plainly: In Cell Western (ICW) assay, pERK in RKO cells. The assay is classed as cell-based. Particulars: Homo sapiens, 3 h treatment. Put shortly:
as §1

T1 sequence (P15056 416-766 V600E limits assumed): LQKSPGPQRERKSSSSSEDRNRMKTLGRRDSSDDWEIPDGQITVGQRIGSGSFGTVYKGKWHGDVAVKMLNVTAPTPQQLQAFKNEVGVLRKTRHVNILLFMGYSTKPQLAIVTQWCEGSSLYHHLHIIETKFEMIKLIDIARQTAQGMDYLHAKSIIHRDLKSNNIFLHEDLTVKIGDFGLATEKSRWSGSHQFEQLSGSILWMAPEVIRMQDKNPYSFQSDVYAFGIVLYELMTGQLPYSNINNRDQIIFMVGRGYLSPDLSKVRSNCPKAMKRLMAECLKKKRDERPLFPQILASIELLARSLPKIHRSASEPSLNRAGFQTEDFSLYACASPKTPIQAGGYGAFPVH

As to `COc1cc(-c2c(F)ccc(NS(=O)(=O)CCCF)c2F)cc2c(N3CCOCC3)nc(-c3ccc(N)nc3)nc12` [Example 79, N-(3-(2-(6-aminopyridin-3-yl)-8-methoxy-4-morpholinoquinazolin-6-yl)-2,4-difluorophenyl)-3-fluoropropane-1-sulfonamide], the IC50 on B-RAFV600E fell in the range of 0.001 to 0.1 µM; in the assay on pS6RP in RKO cells it was 0.1 to 1 µM; in the assay on RKO cells, 0.1 to 1 µM; with pAKT (T308) in RKO cells it was 0.1 to 1 µM.

Regarding `Nc1ncc(-c2nc(N3CCOCC3)c3nc(-c4cccc(NS(=O)(=O)CCCF)c4F)ccc3n2)cn1` [Example 87, N-(3-(2-(2-aminopyrimidin-5-yl)-4-morpholinopyrido[3,2-d]pyrimidin-6-yl)-2-fluorophenyl)-3-fluoropropane-1-sulfonamide], the IC50 on B-RAFV600E fell in the range of 0.001 to 0.1 µM; in the assay with pS6RP in RKO cells, 0.1 to 1 µM; in the assay with RKO cells, 0.1 to 1 µM; with pAKT (T308) in RKO cells, 0.1 to 1 µM.

`Nc1ccc(-c2nc(N3CCOCC3)c3nc(-c4cccc(NS(=O)(=O)CCCF)c4F)ccc3n2)cn1` [Example 88, N-(3-(2-(6-aminopyridin-3-yl)-4-morpholinopyrido[3,2-d]pyrimidin-6-yl)-2-fluorophenyl)-3-fluoropropane-1-sulfonamide]: the IC50 is 0.1 to 1 µM in the assay on pERK in RKO cells; 0.001 to 0.1 µM on B-RAFV600E; 0.1 to 1 µM in the assay with pS6RP in RKO cells; 0.1 to 1 µM with RKO cells; 0.1 to 1 µM in the assay on pAKT (T308) in RKO cells.

Regarding `Nc1ccc(-c2nc(N3CCOCC3)c3nc(-c4cccc(NS(=O)(=O)c5cc(F)ccc5F)c4F)ccc3n2)cn1` [Example 92, N-(3-(2-(6-aminopyridin-3-yl)-4-morpholinopyrido[3,2-d]pyrimidin-6-yl)-2-fluorophenyl)-2,5-difluorobenzenesulfonamide], the IC50 in the assay on pERK in RKO cells was 0.1 to 1 µM; on B-RAFV600E, 0.001 to 0.1 µM; with RKO cells, 1 to 10 µM; with pAKT (T308) in RKO cells, 1 to 10 µM.

As to `Nc1ncc(-c2nc(N3CCOCC3)c3nc(-c4cccc(NS(=O)(=O)c5cc(F)ccc5F)c4F)ccc3n2)cn1` [Example 93, N-(3-(2-(2-aminopyrimidin 5-yl)-4-morpholinopyrido[3,2-d]pyrimidin-6-yl)-2-fluorophenyl)-2,5-difluorobenzenesulfonamide], the IC50 on B-RAFV600E was 0.001 to 0.1 µM; in the assay with RKO cells, 0.1 to 1 µM; with pAKT (T308) in RKO cells, 1 to 10 µM.

Consider `Nc1cc(C(F)(F)F)c(-c2nc(N3CCOCC3)c3nc(-c4cccc(NS(=O)(=O)CCCF)c4F)ccc3n2)cn1` [Example 94, N-(3-(2-(6-amino-4-(trifluoromethyl)pyridin-3-yl)-4-morpholinopyrido[3,2-d]pyrimidin-6-yl)-2-fluorophenyl)-3-fluoropropane-1-sulfonamide], for which the IC50 lay within 0.001 to 0.1 µM with pERK in RKO cells; 0.001 to 0.1 µM on B-RAFV600E; 0.1 to 1 µM in the assay on pS6RP in RKO cells; 0.1 to 1 µM in the assay with RKO cells; 0.1 to 1 µM in the assay with pAKT (T308) in RKO cells.

Consider `Cc1cc(N)ncc1-c1nc(N2CCOCC2)c2nc(-c3cccc(NS(=O)(=O)CCCF)c3F)ccc2n1` [Example 101, N-(3-(2-(6-amino-4-methylpyrtdin-3-yl)-4-morpholinopyrldo[3,2-d]pyrimidin-6-yl)-2-fluorophenyl)-3-fluoropropane-1-sulfonamide], for which the IC50 was in the range of 0.1 to 1 µM with pERK in RKO cells; 0.001 to 0.1 µM on B-RAFV600E; 0.001 to 0.1 µM in the assay on pS6RP in RKO cells; 0.1 to 1 µM in the assay with RKO cells; 0.1 to 1 µM in the assay on pAKT (T308) in RKO cells.

As to `C[C@H]1COCCN1c1nc(-c2cnc(N)cc2C(F)(F)F)nc2ccc(-c3cccc(NS(=O)(=O)CCCF)c3F)nc12` [Example 108, (S)-N-(3-(2-(6-amino-4-(trifluoromethyl)pyrldin-3-yl)-4-(3-methylmorpholino)pyrido[3,2-d]pyrimidin-6-yl)-2-fluorophenyl)-3-fluoropropane-1-sulfonamide], the IC50 with pERK in RKO cells is 0.1 to 1 µM; on B-RAFV600E, 0.001 to 0.1 µM; in the assay on RKO cells it was 0.1 to 1 µM; in the assay with pAKT (T308) in RKO cells it was 1 to 10 µM.

With `CNc1ccc(-c2nc(N3CCOCC3)c3nc(-c4cccc(NS(=O)(=O)CCCF)c4F)ccc3n2)cn1` [Example 113, 3-fluoro-N-(2-fluoro-3-(2-(6-(methylamino)pyridin-3-yl)-4-morpholinopyrido[3,2-d]pyrimidin-6-yl)phenyl)propane-1-sulfonamide], the IC50 on B-RAFV600E was 0.001 to 0.1 µM; with RKO cells, 0.1 to 1 µM; with pAKT (T308) in RKO cells it was 1 to 10 µM.
